Laboratory results as given in US6803186B2, “Compositions and methods for increasing amino acid absorption in mammals” (The IAMS Company, priority 2001, dated 2004).

Tests used:
canine PepT1 (cPepT1) [1] = molecular target: T1, canine PepT1 (cPepT1) (Canis lupus familiaris, UniProt Q8WMX5); assay: Inhibition of H+-dependent 100 μM GlySar uptake by MDCK cells cultured in LHM; type: cell-based; settings: 100 μM GlySar
T1 construct: endogenous in cells; host or cells: MDCK (Madin-Darby Canine Kidney) cells, whole-cell [3H]-GlySar uptake
T1 sequence (Q8WMX5 1-708): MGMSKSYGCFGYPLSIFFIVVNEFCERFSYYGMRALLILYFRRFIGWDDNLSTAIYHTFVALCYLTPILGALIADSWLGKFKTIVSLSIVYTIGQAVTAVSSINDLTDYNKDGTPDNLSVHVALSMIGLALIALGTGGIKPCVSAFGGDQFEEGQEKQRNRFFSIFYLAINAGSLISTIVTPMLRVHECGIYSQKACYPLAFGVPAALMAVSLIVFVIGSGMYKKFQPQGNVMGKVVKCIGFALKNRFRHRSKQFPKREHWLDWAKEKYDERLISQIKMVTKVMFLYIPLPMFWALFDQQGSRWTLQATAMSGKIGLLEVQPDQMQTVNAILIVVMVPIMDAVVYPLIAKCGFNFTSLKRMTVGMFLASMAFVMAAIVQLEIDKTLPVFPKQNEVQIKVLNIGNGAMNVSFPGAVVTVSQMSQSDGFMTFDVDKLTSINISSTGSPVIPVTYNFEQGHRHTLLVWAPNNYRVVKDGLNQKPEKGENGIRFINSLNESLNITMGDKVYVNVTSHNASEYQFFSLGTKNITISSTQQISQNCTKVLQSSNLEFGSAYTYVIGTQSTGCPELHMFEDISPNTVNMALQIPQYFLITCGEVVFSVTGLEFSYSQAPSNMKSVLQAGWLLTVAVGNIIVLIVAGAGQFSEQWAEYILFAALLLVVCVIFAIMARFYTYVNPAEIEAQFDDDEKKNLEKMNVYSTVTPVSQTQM
Method: Characteristic hallmarks of low affinity H^+/peptide cotransport activity, classically defined using membrane vesicles of several species, and more recently by functional expression studies using human, rat, and rabbit PepT1 cDNA, is the recognition of some, but not all, β-lactam antibiotics. […] To determine whether MDCK cPepT1 activity shared these functional features, the uptake of 100 μM GlySar in the absence and presence of pH 7.5 and pH 6.0 buffer, and, in pH 6.0 buffers, the presence of 1 mM additional GlySar (self-inhibitor control), 3 mM Penicillin-G, 30 μM cefadroxil, or 3 mM cefadroxil was compared (FIG. 13).
Other hallmarks of PepT1 function are the decreased ability of Gly-containing peptides to inhibit GlySar, in proportion to their length, and sensitivity to inhibition by carnosine (β-Ala-His).
Accordingly, the following general regimen was used to perform a series of experiments that evaluated the relative abilities of candidate di-(primarily) and tri-peptides to inhibit GlySar uptake by endogenously expressed cPepT1 in MDCK cells:
1. Sixty thousand cells/well were plated into collagen-coated 24-well trays and cultured at 37° C. in an atmosphere of 95% air/5% CO2 in DMEM/10% FCS that contained antibiotics for 1 day.
2. The media was removed and cells were cultured in LHM/10% FCS/antibiotics for 1 day.
3. The media was removed and cells cultured in LHM/10% FCS (no antibiotics) for 20 h.
4. The media was removed and cells cultured for 30 min in air at 37° C. in depletion medium (25 mM Hepes/Tris (pH 7.5), 140 mM NaCl, 5.4 mM KCl, 1.8 mM CaCl2, 0.8 mM MgSO4, and 5 mM glucose, to normalize intracellular nutrient pools.
5. Transport was initiated by replacing depletion medium with uptake medium (depletion medium adjusted to pH 6.0 or kept at pH 7.4) that contained 100 μM GlySar (at a specific activity of 5 μCi/mL, with [^3H]-GlySar supplying 2.88% of total GlySar substrate) and (or) 1 mM of inhibiting peptide.
In total, 23 inhibitory peptides and 2 drug compounds were screened using this protocol.

canine PepT1 (cPepT1) [2] = molecular target: T1, canine PepT1 (cPepT1); assay: Substrate regulation of H+-dependent GlySar uptake capacity of MDCK cells cultured in DMEM (Example 3, Trials 1 and 2); type: cell-based; settings: 10 mM in DMEM
Method: All cells were plated (60,000/2 cm^2 well) and cultured (95% air/5% CO2, 37° C.) for 24 h in Dulbecco's Modified Eagle Media/10% fetal calf serum (FCS)/1%Antibiotic/Antimicrobial solution (ABAM) (DMEM media). Following these initial common culture conditions, cells then were cultured in DMEM, or DMEM that contained 10 mM of Camosine, GlyPhe, Phe, or Gly. Media were changed every 24 h. Media treatments (n=8) were as follows:
The measurement of [^3H]Glysarcosine uptake was performed by using a 24-well cluster tray method (Kilberg M S. Measurement of amino acid transport by hepatocytes in suspension and monolayer culture. Methods Enzym 1989; 173:564-575. Matthews J C, Aslanian A, McDonald K K, Yang W, Malandro M S, Novak D A, Kilberg M S. An expression system for mammalian amino acid transport using a stably maintained episomal vector. Anal Biochem 1997; 254:208-214), and used in Examples 1 and 2. Cells were cultured for 30 min in air at 37° C. in depletion medium (25 mM Hepes/Tris (pH 7.5), 140 mM NaCl, 5.4 mM KCl, 1.8 mM CaCl2, 0.8 mM MgSO4, and 5 mM glucose), to normalize intracellular nutrient pools before transport. The transport assays are initiated by replacing depletion medium with uptake medium (Depletion medium adjusted to pH 6.0) that contained 100 μM GlySar (5 μCi/mL, with [^3H]-GlySar supplying 2.88% of total GlySar). After a 30 minute incubation period, transport was terminated with four rinses of 4° C. depletion medium (pH 7.5). Two hundred and twenty μL of 10% trichloroacetic acid was added to each well, and the radioactivity of the supernatant quantified by liquid scintillation counting. The cells of each well are solubilized in 0.2 N NaOH/0.2% SDS and the protein quantified by using the modified Lowry assay, using bovine serum as a standard. Id. Peptide uptake will be reported as pmol* mg^−1 protein* 30 min^−1. Uptake measurements were taken after 24, 48, and 72 hours of culture in treatment media.
The MDCK cell line was maintained as described previously in the Methods section of Trial 1. […]

PepT1 = molecular target: T2, PepT1 (Homo sapiens, UniProt P46059); settings: read-out: Ki of cefadroxil inhibition of GlySar uptake by PepT1; cited from earlier work
T2 sequence (P46059 1-708): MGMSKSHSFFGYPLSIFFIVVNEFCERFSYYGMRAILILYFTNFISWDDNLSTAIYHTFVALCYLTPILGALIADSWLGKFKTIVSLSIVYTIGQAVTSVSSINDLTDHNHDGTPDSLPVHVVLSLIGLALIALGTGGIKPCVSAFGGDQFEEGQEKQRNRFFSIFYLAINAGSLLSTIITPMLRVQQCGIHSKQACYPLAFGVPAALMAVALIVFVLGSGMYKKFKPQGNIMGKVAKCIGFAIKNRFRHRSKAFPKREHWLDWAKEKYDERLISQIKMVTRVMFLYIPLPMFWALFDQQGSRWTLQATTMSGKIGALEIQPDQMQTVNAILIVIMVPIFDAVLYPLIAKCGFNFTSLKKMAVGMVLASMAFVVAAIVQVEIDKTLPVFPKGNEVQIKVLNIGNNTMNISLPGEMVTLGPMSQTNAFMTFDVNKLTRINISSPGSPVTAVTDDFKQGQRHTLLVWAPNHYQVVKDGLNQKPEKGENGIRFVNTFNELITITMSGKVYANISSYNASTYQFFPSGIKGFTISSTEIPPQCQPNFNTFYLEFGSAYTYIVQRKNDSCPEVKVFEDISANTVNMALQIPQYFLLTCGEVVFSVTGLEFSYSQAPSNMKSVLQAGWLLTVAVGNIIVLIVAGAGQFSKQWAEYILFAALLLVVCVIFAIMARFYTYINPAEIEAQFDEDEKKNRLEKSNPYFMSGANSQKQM

PepT2 = molecular target: T3, PepT2 (Homo sapiens, UniProt Q16348); settings: read-out: Ki of cefadroxil inhibition of PepT2 transport of GlySar; cited from earlier work
T3 sequence (Q16348 1-729): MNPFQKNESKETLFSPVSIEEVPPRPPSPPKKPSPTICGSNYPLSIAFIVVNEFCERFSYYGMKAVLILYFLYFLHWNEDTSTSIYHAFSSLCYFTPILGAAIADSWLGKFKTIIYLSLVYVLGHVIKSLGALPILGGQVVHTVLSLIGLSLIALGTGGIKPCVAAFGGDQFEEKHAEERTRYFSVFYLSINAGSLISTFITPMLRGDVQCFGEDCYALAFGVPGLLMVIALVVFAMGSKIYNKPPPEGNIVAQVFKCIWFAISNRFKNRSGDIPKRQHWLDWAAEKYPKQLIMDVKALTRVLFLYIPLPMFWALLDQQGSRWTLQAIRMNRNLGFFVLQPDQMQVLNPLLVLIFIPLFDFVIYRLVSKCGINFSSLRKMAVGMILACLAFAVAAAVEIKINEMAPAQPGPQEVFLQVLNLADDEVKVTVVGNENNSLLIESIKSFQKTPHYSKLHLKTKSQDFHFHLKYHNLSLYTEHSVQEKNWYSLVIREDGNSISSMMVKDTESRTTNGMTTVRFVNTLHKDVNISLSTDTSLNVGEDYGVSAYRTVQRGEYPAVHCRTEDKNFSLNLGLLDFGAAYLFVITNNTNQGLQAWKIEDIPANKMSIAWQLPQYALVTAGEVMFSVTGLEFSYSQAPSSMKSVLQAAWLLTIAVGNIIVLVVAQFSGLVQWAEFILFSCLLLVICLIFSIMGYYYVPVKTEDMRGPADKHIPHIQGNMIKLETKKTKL

canine PepT1 (cPepT1) [3] = assay: Influence of dexamethasone, insulin and IGF-I on H+-dependent GlySar uptake by MDCK cells (Trials 3A, 3B); type: cell-based; settings: for effect on H+-dependent GlySar uptake capacity: 5 or 500 nM in DMEM, 4 h of culture
Method: MDCK cells were maintained as described in Trial 1, except that cells were cultured for only 1 d before transport trials were performed. Following initial and common culture conditions, cells were cultured in a “nutrient depleted” buffer (Hepes/Tris (pH 7.5),140 mM NaCl, 5.4 mM KCl, 1.8 mM CaCl2, 0.8 mM MgSO4) that contained 5 mM glucose as an energy source, but that lacked amino acid or vitamin sources. In contrast, cells cultured in DMEM, or DMEM that contained 5 nM Dex, 500 nM Dex, 5 nM insulin, or 500 nM insulin, were adequately nourished. Media treatments (n=4) were as follows:
The measurement of [^3H]Glysarcosine uptake was performed by using the 24-well cluster tray method as previously described in the Methods section of Trial 1. Peptide uptake is reported as pmol* mg^−1 protein*30 min^−1. Uptake measurements were taken after 30 min and 4 h of culture in treatment media.
Trial 3B was conducted in the same manner as described for Trail 3A, except that cells were cultured in DMEM or DMEM that contained 1 nM IGF-1, 5 nM IGF-1, 25 nM IGF-1, or 100 nM IGF-1. Uptake measurements were taken after 30 min and 4 h of culture time.

## NCCC(=O)N[C@@H](Cc1cnc[nH]1)C(=O)O [Carnosine, Carnosine (β-AlaHis)]
Canine PepT1 (cPepT1) [1]; 1 mM extracellular substrate, pH 6.0, 30 min
  % inhibition of H+-dependent GlySar uptake: 50%
Canine PepT1 (cPepT1) [2]; 72 h of culture
  increase of GlySar uptake capacity over DMEM-cultured cells: 23%
Canine PepT1 (cPepT1) [2]; 216 h of culture
  increase of GlySar uptake capacity over DMEM-cultured cells: 291%

## CC1=C(C(=O)O)N2C(=O)[C@@H](NC(=O)[C@H](N)c3ccc(O)cc3)[C@H]2SC1 [Cefadroxil]
Canine PepT1 (cPepT1) [1]; 30 μM cefadroxil
  % inhibition of H+-dependent GlySar uptake: not inhibited
Canine PepT1 (cPepT1) [1]; MDCK, 30 μM cefadroxil
  inhibition at 30 µM: 0%
Canine PepT1 (cPepT1) [1]; MDCK, 3 mM cefadroxil
  inhibition at 3000 µM: ~76%
PepT1
  Ki: 3 mM
PepT2
  Ki: 0.03 mM

## C[C@@H]1C[C@H]2[C@@H]3CCC4=CC(=O)C=C[C@]4(C)[C@@]3(F)[C@@H](O)C[C@]2(C)[C@@]1(O)C(=O)CO [dexamethasone]
Canine PepT1 (cPepT1) [3]
  effect on H+-dependent GlySar uptake capacity: no effect

## IGF-I: Insulin-like Growth factor I
Canine PepT1 (cPepT1) [3]; increasing amounts of IGF-I (1 to 100 nM) in DMEM
  stimulation of H+-dependent GlySar uptake: no significant stimulation

## insulin: insulin (negative control)
Canine PepT1 (cPepT1) [3]
  effect on H+-dependent GlySar uptake capacity: no effect
